Experimental data taken from ChEMBL document CHEMBL3808385, “Synthesis, antitumor evaluation and molecular docking studies of [1,2,4]triazolo[4,3-b][1,2,4,5]tetrazine derivatives” (Bioorg Med Chem Lett, 2016).

Columns and labels:
BeWo = assay: Cytotoxicity against human Bewo cells assessed as cell growth inhibition after 72 hrs by MTT assay; assay type: functional, cell-based
MCF7 = assay: Cytotoxicity against human MCF7 cells assessed as cell growth inhibition after 72 hrs by MTT assay; assay type: functional, cell-based; settings: MCF7, 72 h
[1] = Cytotoxicity against human HL60 cells assessed as cell growth inhibition after 72 hrs by MTT assay; assay type: functional, cell-based; settings: HL-60, 72 h
CCRF S-180 [2] = assay: Antitumor activity against mouse S180 cells xenografted in ICR mouse assessed as tumor growth inhibition at 20 mg/kg, ig administered once daily for 7 days starting from second day post xenograft measured after 10 days; assay type: functional; settings: CCRF S-180, po, read-out: TGI
CCRF S-180 [3] = assay: Antitumor activity against mouse S180 cells xenografted in ICR mouse assessed as tumor growth inhibition at 5 mg/kg, ig administered once daily for 7 days starting from second day post xenograft measured after 10 days; assay type: functional; settings: CCRF S-180, po, read-out: TGI
Mus musculus [4] = assay: Toxicity in ICR mouse assessed as pulmonary congestion at 90 mg/kg, ig measured after 14 days; assay type: organism-based; settings: in vivo, po, 336 h
Mus musculus [5] = assay: Toxicity in ICR mouse assessed as respiratory depression at 90 mg/kg, ig measured after 14 days; assay type: organism-based; settings: in vivo, po, 336 h
Mus musculus [6] = assay: Toxicity in ICR mouse assessed as clinical signs parameters at 65.6 mg/kg, ig measured after 14 days; assay type: organism-based; settings: in vivo, po, 336 h
CCRF S-180 [7] = assay: Antitumor activity against mouse S180 cells xenografted in ICR mouse assessed as tumor growth inhibition at 10 mg/kg, ig administered once daily for 7 days starting from second day post xenograft measured after 10 days; assay type: functional; settings: CCRF S-180, po, read-out: TGI
Mus musculus [8] = assay: Toxicity in ICR mouse assessed as respiratory depression at 81 mg/kg, ig measured after 14 days; assay type: organism-based; settings: in vivo, po, 336 h
[9] = target: T1, Hepatocyte growth factor receptor (Homo sapiens, UniProt P08581); assay: Inhibition of cMET (unknown origin) using TK substrate-biotin as substrate preincubated with compound followed by substrate addition for 40 mins measured after 1 hr by HTRF assay
T1 sequence (P08581 whole entry): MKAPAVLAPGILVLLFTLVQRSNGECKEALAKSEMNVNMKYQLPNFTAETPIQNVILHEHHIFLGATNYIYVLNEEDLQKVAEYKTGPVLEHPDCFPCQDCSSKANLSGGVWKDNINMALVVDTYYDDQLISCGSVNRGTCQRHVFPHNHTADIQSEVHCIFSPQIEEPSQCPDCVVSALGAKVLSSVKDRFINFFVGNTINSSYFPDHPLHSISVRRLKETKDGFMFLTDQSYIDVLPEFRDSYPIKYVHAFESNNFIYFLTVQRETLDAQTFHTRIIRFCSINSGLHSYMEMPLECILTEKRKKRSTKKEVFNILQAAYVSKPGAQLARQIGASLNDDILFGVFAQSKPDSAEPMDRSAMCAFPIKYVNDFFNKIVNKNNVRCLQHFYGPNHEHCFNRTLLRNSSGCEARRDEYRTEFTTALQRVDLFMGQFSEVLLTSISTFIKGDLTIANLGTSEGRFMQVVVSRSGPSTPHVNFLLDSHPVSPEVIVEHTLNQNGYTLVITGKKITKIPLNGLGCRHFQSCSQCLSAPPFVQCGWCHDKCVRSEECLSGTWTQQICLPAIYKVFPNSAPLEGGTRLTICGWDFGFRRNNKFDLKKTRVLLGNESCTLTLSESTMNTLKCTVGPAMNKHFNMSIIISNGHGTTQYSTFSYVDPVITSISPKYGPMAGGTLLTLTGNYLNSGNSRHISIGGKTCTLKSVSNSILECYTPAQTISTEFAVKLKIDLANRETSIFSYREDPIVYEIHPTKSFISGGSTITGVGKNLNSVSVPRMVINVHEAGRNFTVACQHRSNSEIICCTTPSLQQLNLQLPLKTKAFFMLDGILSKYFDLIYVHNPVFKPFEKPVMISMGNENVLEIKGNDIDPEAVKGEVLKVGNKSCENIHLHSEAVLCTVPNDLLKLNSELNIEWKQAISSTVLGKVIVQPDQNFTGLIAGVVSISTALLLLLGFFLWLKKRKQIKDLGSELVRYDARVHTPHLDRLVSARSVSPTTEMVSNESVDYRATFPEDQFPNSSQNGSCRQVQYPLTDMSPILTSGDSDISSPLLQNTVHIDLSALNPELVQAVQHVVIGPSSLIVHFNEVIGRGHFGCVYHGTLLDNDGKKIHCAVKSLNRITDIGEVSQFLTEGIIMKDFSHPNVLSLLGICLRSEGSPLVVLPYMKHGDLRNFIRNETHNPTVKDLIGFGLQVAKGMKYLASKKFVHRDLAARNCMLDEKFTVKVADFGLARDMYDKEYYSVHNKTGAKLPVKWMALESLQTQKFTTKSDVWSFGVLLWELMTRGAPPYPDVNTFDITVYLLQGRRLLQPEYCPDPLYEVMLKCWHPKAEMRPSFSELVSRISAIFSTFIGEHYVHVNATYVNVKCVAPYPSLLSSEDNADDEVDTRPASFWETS

Mus musculus [10] = assay: Toxicity in ICR mouse assessed as pulmonary congestion at 81 mg/kg, ig measured after 14 days; assay type: organism-based; settings: in vivo, po, 336 h
Mus musculus [11] = assay: Toxicity in ICR mouse assessed as body weight loss at 65.6 mg/kg, ig measured after 14 days; assay type: organism-based; settings: in vivo, po, 336 h
Mus musculus [12] = assay: Toxicity in ICR mouse assessed as respiratory depression at 100 mg/kg, ig measured after 14 days; assay type: organism-based; settings: in vivo, po, 336 h
[13] = Toxicity in ICR mouse assessed as mortality at 72.9 mg/kg, ig measured after 14 days; assay type: organism-based; settings: in vivo, po
Mus musculus [14] = assay: Toxicity in ICR mouse assessed as loss of locomotor activity at 100 mg/kg, ig measured after 14 days; assay type: organism-based; settings: in vivo, po, 336 h
Mus musculus [15] = assay: Toxicity in ICR mouse assessed as pulmonary congestion at 100 mg/kg, ig measured after 14 days; assay type: organism-based; settings: in vivo, po, 336 h
Mus musculus [16] = assay: Toxicity in ICR mouse assessed as convulsions on limbs at 72.9 mg/kg, ig measured after 14 days; assay type: organism-based, Limb; settings: in vivo, po, 336 h
Mus musculus [17] = assay: Toxicity in ICR mouse assessed as convulsions on limbs at 100 mg/kg, ig measured after 14 days; assay type: organism-based, Limb; settings: in vivo, po, 336 h
[18] = Toxicity in ig dosed ICR mouse assessed as mortality measured after 14 days; assay type: organism-based; settings: in vivo, po
Mus musculus [19] = assay: Toxicity in ICR mouse assessed as convulsions on limbs at 90 mg/kg, ig measured after 14 days; assay type: organism-based, Limb; settings: in vivo, po, 336 h
Mus musculus [20] = assay: Toxicity in ICR mouse assessed as respiratory depression at 72.9 mg/kg, ig measured after 14 days; assay type: organism-based; settings: in vivo, po, 336 h
Mus musculus [21] = assay: Toxicity in ICR mouse assessed as loss of locomotor activity at 90 mg/kg, ig measured after 14 days; assay type: organism-based; settings: in vivo, po, 336 h
Mus musculus [22] = assay: Toxicity in ICR mouse assessed as pulmonary congestion at 72.9 mg/kg, ig measured after 14 days; assay type: organism-based; settings: in vivo, po, 336 h
Mus musculus [23] = assay: Toxicity in ICR mouse assessed as loss of locomotor activity at 81 mg/kg, ig measured after 14 days; assay type: organism-based; settings: in vivo, po, 336 h
[24] = Toxicity in ICR mouse assessed as mortality at 65.6 mg/kg, ig measured after 14 days; assay type: organism-based; settings: in vivo, po
Mus musculus [25] = assay: Toxicity in ICR mouse assessed as loss of locomotor activity at 72.9 mg/kg, ig measured after 14 days; assay type: organism-based; settings: in vivo, po, 336 h
Mus musculus [26] = assay: Toxicity in ICR mouse assessed as convulsions on limbs at 81 mg/kg, ig measured after 14 days; assay type: organism-based, Limb; settings: in vivo, po, 336 h
[27] = target: T1, Hepatocyte growth factor receptor; assay: Inhibition of cMET (unknown origin) using poly(Glu-Tyr) substrate incubated for 60 mins by ELISA

## Cc1cc(C)n(-c2nnc3nncn3n2)n1
BeWo
  IC50: 47.3 µM
MCF7
  IC50: > 100 µM
[1]
  IC50: 63.3 µM

## c1ccc(CN2CCN(c3nnc4nncn4n3)CC2)cc1
BeWo
  IC50: 5.1 µM
MCF7
  IC50: 27.3 µM
[1]
  IC50: 14.2 µM

## O=C(c1ccccc1)N1CCN(c2nnc3nncn3n2)CC1
BeWo
  IC50: 5.87 µM
MCF7
  IC50: 8.38 µM
[1]
  IC50: 4.67 µM

## CCCCCC(=O)N1CCN(c2nnc3nncn3n2)CC1
BeWo
  IC50: 2.96 µM
MCF7
  IC50: 5.26 µM
[1]
  IC50: 3.61 µM

## CCCNc1nnc2nncn2n1
BeWo
  IC50: 14.3 µM
MCF7
  IC50: 19.8 µM
[1]
  IC50: 15.1 µM

## OCC(CO)(CO)Nc1nnc2nncn2n1
BeWo
  IC50: 12.4 µM
MCF7
  IC50: > 100 µM
[1]
  IC50: > 100 µM

## CCC(=O)N1CCN(c2nnc3nncn3n2)CC1
BeWo
  IC50: 13.7 µM
MCF7
  IC50: 14.8 µM
[1]
  IC50: 10.1 µM

## O=C(Cc1ccccc1)N1CCN(c2nnc3nncn3n2)CC1
BeWo
  IC50: 2.77 µM
MCF7
  IC50: 3.08 µM
[1]
  IC50: 1.85 µM

## c1ccc(CCNc2nnc3nncn3n2)cc1
BeWo
  IC50: 2.49 µM
MCF7
  IC50: 1.24 µM
[1]
  IC50: 4.15 µM

## c1nnc2nnc(N3CCCCC3)nn12
BeWo
  IC50: 10.8 µM
MCF7
  IC50: 27.2 µM
[1]
  IC50: 23.6 µM

## c1nnc2nnc(NC3CCCC3)nn12
BeWo
  IC50: 34.6 µM
MCF7
  IC50: 88.2 µM
[1]
  IC50: 38.1 µM

## CC(Nc1nnc2nncn2n1)C(=O)O (stereo not drawn)
BeWo
  IC50: 82.2 µM
MCF7
  IC50: > 100 µM
[1]
  IC50: 74.2 µM

## c1nnc2nnc(N3CCOCC3)nn12
CCRF S-180 [2]
  inhibition in vivo at 20 mg/kg: 27.9%
CCRF S-180 [3]
  inhibition in vivo at 5 mg/kg: 24.2%
Mus musculus [4]
  Activity: Toxic
Mus musculus [5]
  Activity: Toxic
Mus musculus [6]
  Activity: Non-toxic
CCRF S-180 [7]
  inhibition in vivo at 10 mg/kg: 63%
Mus musculus [8]
  Activity: Toxic
[9]
  IC50: 11.8 µM
Mus musculus [10]
  Activity: Toxic
Mus musculus [11]
  Activity: Non-toxic
Mus musculus [12]
  Activity: Toxic
[13]
  mortality at 336 h: 25%
BeWo
  IC50: 1.3 µM
Mus musculus [14]
  Activity: Toxic
Mus musculus [15]
  Activity: Toxic
Mus musculus [16]
  Activity: Toxic
MCF7
  IC50: 2.24 µM
Mus musculus [17]
  Activity: Toxic
[18]
  LD50 at 336 h: 82.5 mg/kg
Mus musculus [19]
  Activity: Toxic
Mus musculus [20]
  Activity: Toxic
Mus musculus [21]
  Activity: Toxic
Mus musculus [22]
  Activity: Toxic
Mus musculus [23]
  Activity: Toxic
[24]
  mortality at 336 h: 0%
[1]
  IC50: 1.45 µM
Mus musculus [25]
  Activity: Toxic
Mus musculus [26]
  Activity: Toxic

## CCCCNc1nnc2nncn2n1
BeWo
  IC50: 8.64 µM
MCF7
  IC50: 13.7 µM
[1]
  IC50: 36.2 µM

## O=C(c1ccc([N+](=O)[O-])cc1)N1CCN(c2nnc3nncn3n2)CC1
BeWo
  IC50: 3.1 µM
MCF7
  IC50: 4.53 µM
[1]
  IC50: 17.2 µM

## O=C(c1ccc(Cl)cc1)N1CCN(c2nnc3nncn3n2)CC1
BeWo
  IC50: 7.51 µM
MCF7
  IC50: 12.8 µM
[1]
  IC50: 12.3 µM

## CCCCC(=O)N1CCN(c2nnc3nncn3n2)CC1
BeWo
  IC50: 1.72 µM
MCF7
  IC50: 2.76 µM
[1]
  IC50: 3.13 µM

## CC(=O)N1CCN(c2nnc3nncn3n2)CC1
BeWo
  IC50: 13.1 µM
MCF7
  IC50: 13.9 µM
[1]
  IC50: 14.7 µM

## Nc1nnc2nncn2n1
BeWo
  IC50: 17.3 µM
MCF7
  IC50: 46.5 µM
[1]
  IC50: 68.5 µM

## OCCNc1nnc2nncn2n1
BeWo
  IC50: 3.31 µM
MCF7
  IC50: 11.6 µM
[1]
  IC50: 45.3 µM

## COc1ccc2c(OCc3nnc4nnc(-c5ccccc5)nn34)ccnc2c1
[27]
  IC50: 0.006 µM

## CN(C)c1nnc2nncn2n1
BeWo
  IC50: 0.61 µM
MCF7
  IC50: 7.76 µM
[1]
  IC50: 4.84 µM

## CN1CCN(c2nnc3nncn3n2)CC1
BeWo
  IC50: 7.99 µM
MCF7
  IC50: 21.6 µM
[1]
  IC50: 8.54 µM

## CC(C)(C)C(=O)N1CCN(c2nnc3nncn3n2)CC1
BeWo
  IC50: 2.41 µM
MCF7
  IC50: 5.51 µM
[1]
  IC50: 1.38 µM

## Cc1ccc(C(=O)N2CCN(c3nnc4nncn4n3)CC2)cc1
BeWo
  IC50: 14.3 µM
MCF7
  IC50: 15.9 µM
[1]
  IC50: 9.31 µM

## c1nnc2nnc(N3CCCC3)nn12
BeWo
  IC50: 4.29 µM
MCF7
  IC50: 5.13 µM
[1]
  IC50: 24.4 µM

## CCCC(=O)N1CCN(c2nnc3nncn3n2)CC1
BeWo
  IC50: 6.73 µM
MCF7
  IC50: 6.91 µM
[1]
  IC50: 9.84 µM

## CC(C)COC(=O)N1CCN(c2nnc3nncn3n2)CC1
BeWo
  IC50: 13.1 µM
MCF7
  IC50: 5.39 µM
[1]
  IC50: 7.93 µM

## c1nnc2nnc(NC3CCCCC3)nn12
BeWo
  IC50: 2.65 µM
MCF7
  IC50: 3.51 µM
[1]
  IC50: 6.61 µM

## CC(C)C(=O)N1CCN(c2nnc3nncn3n2)CC1
[9]
  IC50: 23.7 µM
BeWo
  IC50: 1.09 µM
MCF7
  IC50: 1.81 µM
[1]
  IC50: 1.61 µM

## O=C(C1CCCCC1)N1CCN(c2nnc3nncn3n2)CC1
[9]
  IC50: 7.9 µM
BeWo
  IC50: 1.9 µM
MCF7
  IC50: 1.26 µM
[1]
  IC50: 1.16 µM
